From PMC8704611, “Synthesis, Molecular Docking Analysis, and Biological Evaluations of Saccharide-Modified Sulfonamides as Carbonic Anhydrase IX Inhibitors” (International Journal of Molecular Sciences, 2021)

How the values were obtained:
[1] = biological target: hCA II (Homo sapiens, UniProt P00918); experiment: CA inhibition assay (hydrolysis of 4-nitrophenylacetate); type: biochemical; conditions: 4-NPA hydrolysis; three independent assays, relative errors 5–10%
Description: (§1) Carbonic anhydrase has the ability to catalyse the hydrolysis of 4-NPA. […] More detailed operations and specific parameters are as reported earlier.

[2] = biological target: hCA IX (Homo sapiens, UniProt Q16790); experiment: as above; type: biochemical; conditions: 4-NPA hydrolysis; three independent assays, relative errors 5–10%
Description: as §1

Row | SMILES | IC50 [1] [nM] | IC50 [2] [nM] | melting point [°C]
1 | NS(=O)(=O)c1ccc(-n2cc(-c3ccc(NC(=O)CCC(=O)N[C@@H]4O[C@H](CO)[C@@H](O)[C@H](O)[C@H]4O)c(F)c3)nn2)cc1 [Compound 16c, N^1-(2-fluoro-4-(1-(4-sulfamoylphenyl)-1H-1,2,3-triazol-4-yl)phenyl)-N^4-((2R,3R,4S,5S,6R)-3,4,5-trihydroxy-6-(hydroxymethyl)tetrahydro-2H-pyran-2-yl)succinamide] | 70.2 | 150 | –
2 | Cc1cc(-c2cn(-c3ccc(S(N)(=O)=O)cc3)nn2)ccc1NC(=O)CCCC(=O)N[C@@H]1O[C@H](CO)[C@@H](O)[C@H](O)[C@H]1O [Compound 16l, N^1-(2-methyl-4-(1-(4-sulfamoylphenyl)-1H-1,2,3-triazol-4-yl)phenyl)-N^5-((2R,3R,4S,5S,6R)-3,4,5-trihydroxy-6-(hydroxymethyl)tetrahydro-2H-pyran-2-yl)glutaramide] | 25.6 | 161 | –
3 | Nc1c(F)cc(-c2cn(-c3ccc(S(N)(=O)=O)cc3)nn2)cc1F [Compound 14g, 4-(4-(4-Amino-3,5-difluorophenyl)-1H-1,2,3-triazol-1-yl)benzenesulfonamide] | 87 | 107 | 280 to 283
4 | NS(=O)(=O)c1ccc(-n2cc(-c3ccc(NC(=O)CCCC(=O)N[C@@H]4O[C@H](CO)[C@@H](O)[C@H](O)[C@H]4O)c([N+](=O)[O-])c3)nn2)cc1 [Compound 16o, N^1-(2-nitro-4-(1-(4-sulfamoylphenyl)-1H-1,2,3-triazol-4-yl)phenyl)-N^5-((2R,3R,4S,5S,6R)-3,4,5-trihydroxy-6-(hydroxymethyl)tetrahydro-2H-pyran-2-yl)glutaramide] | 129 | 216 | –
5 | COc1cc(-c2cn(-c3ccc(S(N)(=O)=O)cc3)nn2)ccc1N [Compound 14f, 4-(4-(4-Amino-3-methoxyphenyl)-1H-1,2,3-triazol-1-yl)benzenesulfonamide] | 100 | 120 | 230 to 233
6 | NS(=O)(=O)c1ccc(-n2cc(-c3ccc(NC(=O)CCCC(=O)N[C@@H]4O[C@H](CO)[C@@H](O)[C@H](O)[C@H]4O)c(F)c3)nn2)cc1 [Compound 16j, N^1-(2-fluoro-4-(1-(4-sulfamoylphenyl)-1H-1,2,3-triazol-4-yl)phenyl)-N^5-((2R,3R,4S,5S,6R)-3,4,5-trihydroxy-6-(hydroxymethyl)tetrahydro-2H-pyran-2-yl)glutaramide] | 88.4 | 230 | –
7 | NS(=O)(=O)c1ccc(-n2cc(-c3ccc(NC(=O)CCC(=O)N[C@@H]4O[C@H](CO)[C@@H](O)[C@H](O)[C@H]4O)c(Cl)c3)nn2)cc1 [Compound 16d, N^1-(2-chloro-4-(1-(4-sulfamoylphenyl)-1H-1,2,3-triazol-4-yl)phenyl)-N^4-((2R,3R,4S,5S,6R)-3,4,5-trihydroxy-6-(hydroxymethyl)tetrahydro-2H-pyran-2-yl)succinamide] | 90.8 | 100 | –
8 | NS(=O)(=O)c1ccc(-n2cc(-c3cc(F)c(NC(=O)CCCC(=O)N[C@@H]4O[C@H](CO)[C@@H](O)[C@H](O)[C@H]4O)c(F)c3)nn2)cc1 [Compound 16n, N^1-(2,6-difluoro-4-(1-(4-sulfamoylphenyl)-1H-1,2,3-triazol-4-yl)phenyl)-N^5-((2R,3R,4S,5S,6R)-3,4,5-trihydroxy-6-(hydroxymethyl)tetrahydro-2H-pyran-2-yl)glutaramide] | 177 | 352 | –
9 | NS(=O)(=O)c1ccc(-n2cc(-c3ccc(NC(=O)CCCC(=O)N[C@@H]4O[C@H](CO)[C@@H](O)[C@H](O)[C@H]4O)c(Cl)c3)nn2)cc1 [Compound 16k, N^1-(2-chloro-4-(1-(4-sulfamoylphenyl)-1H-1,2,3-triazol-4-yl)phenyl)-N^5-((2R,3R,4S,5S,6R)-3,4,5-trihydroxy-6-(hydroxymethyl)tetrahydro-2H-pyran-2-yl)glutaramide] | 91 | 290 | –
10 | COc1cc(-c2cn(-c3ccc(S(N)(=O)=O)cc3)nn2)ccc1NC(=O)CCC(=O)N[C@@H]1O[C@H](CO)[C@@H](O)[C@H](O)[C@H]1O [Compound 16f, N^1-(2-methoxy-4-(1-(4-sulfamoylphenyl)-1H-1,2,3-triazol-4-yl)phenyl)-N^4-((2R,3R,4S,5S,6R)-3,4,5-trihydroxy-6-(hydroxymethyl)tetrahydro-2H-pyran-2-yl)succinamide] | 112 | 329 | –
11 | NS(=O)(=O)c1ccc(-n2cc(-c3cccc(NC(=O)CCCC(=O)N[C@@H]4O[C@H](CO)[C@@H](O)[C@H](O)[C@H]4O)c3)nn2)cc1 [Compound 16i, N^1-(3-(1-(4-sulfamoylphenyl)-1H-1,2,3-triazol-4-yl)phenyl)-N^5-((2R,3R,4S,5S,6R)-3,4,5-trihydroxy-6-(hydroxymethyl)tetrahydro-2H-pyran-2-yl)glutaramide] | 10.1 | 300 | –
12 | NS(=O)(=O)c1ccc(-n2cc(-c3cc(F)c(NC(=O)CCC(=O)N[C@@H]4O[C@H](CO)[C@@H](O)[C@H](O)[C@H]4O)c(F)c3)nn2)cc1 [Compound 16g, N^1-(2,6-difluoro-4-(1-(4-sulfamoylphenyl)-1H-1,2,3-triazol-4-yl)phenyl)-N^4-((2R,3R,4S,5S,6R)-3,4,5-trihydroxy-6-(hydroxymethyl)tetrahydro-2H-pyran-2-yl)succinamide] | 149 | 544 | –
13 | Cc1cc(-c2cn(-c3ccc(S(N)(=O)=O)cc3)nn2)ccc1N [Compound 14e, 4-(4-(4-Amino-3-methylphenyl)-1H-1,2,3-triazol-1-yl)benzenesulfonamide] | 37.9 | 111 | 264 to 266
14 | Nc1ccc(-c2cn(-c3ccc(S(N)(=O)=O)cc3)nn2)cc1F [Compound 14c, 4-(4-(4-Amino-3-fluorophenyl)-1H-1,2,3-triazol-1-yl)benzenesulfonamide] | 15.7 | 40.4 | 245 to 247
15 | Nc1cccc(-c2cn(-c3ccc(S(N)(=O)=O)cc3)nn2)c1 [Compound 14b, 4-(4-(3-Aminophenyl)-1H-1,2,3-triazol-1-yl)benzenesulfonamide] | 12.3 | 50.4 | 270 to 273
16 | Nc1ccc(-c2cn(-c3ccc(S(N)(=O)=O)cc3)nn2)cc1Cl [Compound 14d, 4-(4-(4-Amino-3-chlorophenyl)-1H-1,2,3-triazol-1-yl)benzenesulfonamide] | 39.9 | 71 | 201 to 203
17 | Nc1ccc(-c2cn(-c3ccc(S(N)(=O)=O)cc3)nn2)cc1 [Compound 14a, 4-(4-(4-Aminophenyl)-1H-1,2,3-triazol-1-yl)benzenesulfonamide] | 19.3 | 54.4 | 256 to 258
18 | Nc1ccc(-c2cn(-c3ccc(S(N)(=O)=O)cc3)nn2)cc1[N+](=O)[O-] [Compound 14h, 4-(4-(4-Amino-3-nitrophenyl)-1H-1,2,3-triazol-1-yl)benzenesulfonamide] | 102 | 58.2 | 222 to 225
19 | NS(=O)(=O)c1ccc(-n2cc(-c3ccc(NC(=O)CCCC(=O)N[C@@H]4O[C@H](CO)[C@@H](O)[C@H](O)[C@H]4O)cc3)nn2)cc1 [Compound 16h, N^1-(4-(1-(4-sulfamoylphenyl)-1H-1,2,3-triazol-4-yl)phenyl)-N^5-((2R,3R,4S,5S,6R)-3,4,5-trihydroxy-6-(hydroxymethyl)tetrahydro-2H-pyran-2-yl)glutaramide] | 26 | 270 | –
